Laboratory results as given in US5945450A, “Naphthalene derivative” (Teijin Limited, priority 1994, dated 1999).

What was measured:
Assay type in all cases: cell-based
[1] = system: human IgE antibodies; assay: In vitro inhibition of the production of human IgE antibodies (lymphocytes + IL-4 + anti CD40Ab + IL-10, ELISA); settings: Lymphocyte, 3 μM, read-out: Inhibition of antibody production (%) IgE
Protocol: (§1) According to the method described in J. Immunol., 146:1836-1842, 1991 and J. Immunol., 147:8-13, 1991, the concentrations of IgE and IgG antibodies were measured by the procedures described below.
(§2) Peripheral venous blood was sampled from the healthy person, and submitted to density-gradient centrifugation to isolate lymphocytes. The lymphocytes thus obtained were washed and suspended in a culture medium (RPMI-1640 (provided by Gibco)+10% heat-inactivated FCS (Whittaker)+100 µg/ml streptomycin+100 U/ml penicillin+2mM L-glutamine). The cell suspensions were cultured for 1 week in the presence/absence of the compounds of this invention at the concentrations as described in Tables 3-1 to 3-2 together with human interleukin 4 (IL-4, Genzyme)([…]), anti CD40 antibodies (anti CD40Ab, Biosource, clone B-B20)([…]) and human interleukin 10 (IL-10, Genzyme)([…]). The culture medium was supplied freshly to the cell suspension, and the mixture was further cultured for another week. The supernatant was sampled and the concentrations of IgE and IgG antibodies therein were measured by sandwich ELISA.
(§3) The ELISA was based, for the assay of IgE antibodies, on the use of rabbit anti-human IgE() antibodies (ICN) as the primary antibody and biotin-linked anti-human IgE monoclonal antibodies (G7-26, PharMingen) as the secondary antibody. For the assay of IgG antibodies, anti-human IgG monoclonal antibodies (G18-145, PharMingen) and biotin-linked donkey anti-human IgG antibodies (H+L)(Jackson) were used for the primary and secondary antibodies, respectively. For the assay of both IgE and IgG antibodies, Avidin-Biotin-Horse Radish Peroxidase (ABC kit, Vector Lab) and TMB (3,3',5,5'-tetramethylbenzidine) microwell peroxidase substrate system (Kirkegaard & Perry Laboratories Inc.) were used as the enzyme and the substrate, respectively. The assays were made by the use of conventionally known ELISA.
(§4) The inhibitory effect (%) of a given compound of this invention on the production of the antibody was calculated with respect to the concentration of the same antibody when the compound was not coexistent (refer to Uejima et al., American Academy of Allergy and Immunology, Proceedings of 1995 Annual Meeting, Program No. 818).

[2] = system: human IgG antibodies; assay: In vitro inhibition of human IgG antibody production (lymphocytes + IL-4 + anti CD40Ab + IL-10, ELISA); settings: Lymphocyte, 3 μM
Protocol: as §1, §2, §3, §4

[3] = system: TF (tissue factor); assay: Inhibitory effects on the TF production in LPS-stimulated human peripheral blood monocytes; settings: Monocyte, LPS 1 μg/ml, 16 hours
Protocol: Peripheral venous blood was sampled from the healthy person, and submitted to density-gradient centrifugation so that monocytes might be isolated. The monocytes thus obtained were washed with minimum essential medium (MEM, Gibco) and suspended in a culture medium (RPMI-1640(Gibco)+25 mM HEPES buffer+100 μg/ml streptomycin+100 U/ml penicillin G+2 mM L-glutamine) to give a suspension with a density of 1×10^6 cells/ml. A 0.15 ml of the cell suspension was placed onto each of the wells of a 96-well microplate, to which the compound of this invention as described in Tables 4-1 to 4-2 was added (0.05 ml of the culture medium), and the assembly was placed for 1 hour in a CO2 incubator for cultivation. Then, LPS (lipopolysaccarides, E. coli 0111B4, Difco) 1 μg/ml was added thereto, and the assembly was further cultured for 16 hours. After the supernatant being removed, the residue was washed with physiological saline, 0.1 ml of 16 mM OG (n-octyl-β-D-glucopyranoside) was added thereto, and the assembly was stirred to make TF soluble. A 0.2 ml of physiological saline was added to each residue (final dilution was […]) and this preparation was used for determination of the coagulation stimulating activity (TF-like activity). The test compound had been dissolved in DMSO to give a 0.1 M solution which was diluted with the culture medium prior to use. The final concentration of DMSO was 0.01% or less.
To each well of the microplate, 50 μl of human plasma and 50 μl of the test sample prepared as above for determination of the coagulation stimulating activity, or 50 μl of standard thromboplastin (human thromboplastin, Thromborel S, Behringwerke) were added. The microplate was incubated at 37° C. for 5 minutes, to which was added 25 mM CaCl2 (50 μl/well) containing phosphorous lipids (Platelin, Organon Teknica) at a concentration of […] to initiate coagulation. Coagulation was determined on the basis of absorption at 540 nm, and the measurement lasted 7 to 20 minutes. The data were analyzed with a data analyzing software SOFTMax (Molecular Devices) and the maximum rate time was taken as the coagulation time. The logarithmic values of the coagulation times and standard thromboplastin concentrations are plotted, and a regression parabola was drawn among the dots to give a test curve. From the curve, the inhibitory effect (%) of a given test compound on TF production was calculated. (Refer to J. Imnmunol. Methods, 133:21-29, 1990, and Proc. Natl. Acad. Sci. USA, 89:10370-10374, 1992).

SMILES	inhibition at 3 µM [1] [%]	inhibition at 3 µM [2] [%]	inhibition at 1 µM [3] [%]	inhibition at 3 µM [3] [%]	inhibition at 10 µM [3] [%]
COC(=O)c1ccccc1NC(=O)c1ccc(Oc2ccc3ccccc3c2)cc1 [Compound No. 1101, 2-(4-(2-naphthyloxy)benzamide)benzoic Acid Methyl Ester]	30.3	-2.8	–	–	–
O=C(Nc1ccccc1)c1ccc(Oc2ccc3ccccc3c2)cc1 [Compound No. 1105, N-phenyl-4-(2-naphtyloxy)benzamide]	42.4	-6.4	–	–	–
O=C(Nc1ccccc1O)c1ccc(Oc2ccc3ccccc3c2)cc1 [Compound No. 1106, 2-(4-(2-naphtyloxy)benzamide)phenol]	42.6	-25.3	–	–	–
NS(=O)(=O)c1ccccc1NC(=O)c1ccc(Oc2ccc3ccccc3c2)cc1 [Compound No. 1107, 2-(4-(2-naphtyloxy)benzamide)benzenesulfonamide]	44.9	-17.2	–	–	–
O=C(Nc1ccccc1-c1nnn[nH]1)c1ccc(Oc2ccc3ccccc3c2)cc1 [Compound No. 1109, 1-(4-(2-naphtyloxy)benzamide)-2-(tetrazol-5-yl)benzene]	–	–	74.9	99.4	99.7
Nc1cc(C(=O)Nc2ccccc2C(=O)O)ccc1Oc1ccc2ccccc2c1 [Compound No. 1118, 2-(3-amino-4-(2-naphtyloxy)benzamide)benzoic Acid]	77.2	-12.9	–	86.9	–
O=C(Nc1ccccc1C(=O)O)c1ccc(Oc2ccc3cc(O)ccc3c2)cc1 [Compound No. 1202, 2-(4-(6-hydroxy-2-naphtyloxy)benzamide)benzoic Acid]	76.6	-8.7	–	33.4	–
O=C(Cc1ccc(Oc2ccc3cc(O)ccc3c2)cc1)Nc1ccccc1C(=O)O [Compound No. 1208, 2-(4-(6-hydroxy-2-naphtyloxy)phenylacetamide)benzoic Acid]	86.2	-8.4	–	–	–
N#Cc1ccccc1NC(=O)c1ccc(Sc2ccc3ccccc3c2)cc1 [Compound No. 3103, 2-(4-(2-naphtylthio)benzamide)benzonitrile]	41.9	3.5	–	77.9	–
O=C(Nc1ccccc1-c1nnn[nH]1)c1ccc(Sc2ccc3ccccc3c2)cc1 [Compound No. 3104, 1-(4-(2-naphtylthio)benzamide)-2-(tetrazol-5-yl)benzene]	–	–	–	96.9	–
O=C(Nc1ccccc1C(=O)O)c1ccc(Oc2cccc3ccccc23)cc1 [compound 1111]	38	20	-9	96.2	100
O=C(Nc1ccccc1C(=O)O)c1cccc(Oc2ccc3ccccc3c2)c1 [compound 1113]	–	–	25.3	83.6	100
O=C(Nc1ccccc1C(=O)O)c1ccc(Oc2ccc3ccccc3c2)c([N+](=O)[O-])c1 [compound 1116]	93	36.9	–	96.6	–
O=C(Nc1ccccc1C(=O)O)c1ccc(Oc2ccc3ccccc3c2)c(C(=O)O)c1 [compound 1120]	19.9	13.6	–	–	–
O=C(Nc1ccccc1C(=O)O)c1ccc(Oc2ccc3ccccc3c2)c(C(=O)Nc2ccccc2C(=O)O)c1 [compound 1122]	59.9	9.7	–	–	–
COC(=O)c1ccccc1NC(=O)Cc1ccc(Oc2ccc3ccccc3c2)cc1 [compound 1123]	21.7	-0.8	–	–	–
O=C(CCc1ccc(Oc2ccc3ccccc3c2)cc1)Nc1ccccc1C(=O)O [compound 1146]	–	–	–	23.5	–

SMILES	inhibition at 3 µM [1] [%]	inhibition at 3 µM [2] [%]	inhibition at 1 µM [3] [%]	inhibition at 3 µM [3] [%]	inhibition at 10 µM [3] [%]
O=C(C=Cc1ccc(Oc2ccc3ccccc3c2)cc1)Nc1ccccc1C(=O)O [compound 1148]	25.5	10.3	–	92.9	–
CC(C(=O)Nc1ccccc1C(=O)O)c1ccc(Oc2ccc3ccccc3c2)cc1 (stereo not drawn) [compound 1150]	64.4	3.3	–	–	–
COc1ccc2cc(Oc3ccc(C(=O)Nc4ccccc4C(=O)O)cc3)ccc2c1 [compound 1204]	64	-11.4	75.7	100	100
O=C(Nc1ccccc1C(=O)O)c1ccc(Oc2ccc3cc(OCc4ccccc4)ccc3c2)cc1 [compound 1206]	84	11.5	–	–	–
CC(C)(C)Oc1ccc2cc(Oc3ccc(CC(=O)Nc4ccccc4C(=O)O)cc3)ccc2c1 [compound 1210]	92.8	59.9	–	–	–
O=C(Cc1ccc(Oc2ccc3cc(OC4CCCCC4)ccc3c2)cc1)Nc1ccccc1C(=O)O [compound 1212]	89.1	74.6	–	–	–
C=CCOc1ccc2cc(Oc3ccc(CC(=O)Nc4ccccc4C(=O)O)cc3)ccc2c1 [compound 1218]	91.4	47.8	–	–	–
O=C(Cc1ccc(Oc2ccc3cc(OCc4ccccc4)ccc3c2)cc1)Nc1ccccc1C(=O)O [compound 1224]	78.6	83.2	–	–	–
O=C(Cc1ccc(Oc2ccc3cc(OCc4ccc5ccccc5c4)ccc3c2)cc1)Nc1ccccc1C(=O)O [compound 1228]	98.9	42.4	–	–	–
O=C(Nc1ccccc1C(=O)O)c1ccc(Sc2ccc3ccccc3c2)cc1 [compound 3102]	19.9	-2.8	–	100	–
O=C(Nc1ccccc1C(=O)O)c1ccc(Cc2ccc3ccccc3c2)cc1 [compound 4103]	45.5	-4.2	16.5	74.4	100
O=C(Nc1ccccc1C(=O)O)c1ccc(COc2ccc3ccccc3c2)cc1 [compound 5102]	–	–	19.8	74.1	99.9
O=C(Cc1ccc(COc2ccc3ccccc3c2)cc1)Nc1ccccc1C(=O)O [compound 5104]	51.4	1.6	–	–	–
O=C(Nc1ccccc1C(=O)O)c1ccc(CSc2ccc3ccccc3c2)cc1 [compound 6102]	–	–	–	75.8	100
O=C(Nc1ccccc1C(=O)O)c1ccc(C(=O)c2ccc3ccccc3c2)cc1 [compound 7102]	15.4	5.4	–	10.6	81.1
COC(c1ccc(C(=O)Nc2ccccc2C(=O)O)cc1)c1ccc2ccccc2c1 (stereo not drawn) [compound 8102]	60	9.7	–	–	–
